{"source": "patent US20250236603A1", "about": "“SOLID FORMS OF ALECTINIB AND ALECTINIB SALTS” (Synthon B.V., priority 2022, published 2025)", "key": {"[1]": {"experiment": "Solubilities of prepared salts (buffer pH 1.2 with 4% Triton X-100, HPLC)", "settings": "100 rpm", "procedure": "(§1) 20 mg of the Alectinib salt was mixed 10 ml of a mixture of buffer pH 1.2 and 4% Triton X-100. The mixture was placed into a stirring carousel at temperature +37° C. and 100 rpm. After 1 hour and 4 hours about 1 mL of each sample was taken and filtered through a 0.45 μm filter into a vial. Then each sample was diluted with Solvent solution to get signal of absorbance ≤1 at 265 nm, transferred into a vial and measured by HPLC method.\n(§2) 20 mg of the Alectinib salt was mixed 10 ml of a mixture of buffer pH 1.2 and 4% Triton X-100. The mixture was placed into a stirring carousel at temperature+37° C. and 100 rpm. After 1 hour and 4 hours about 1 mL of each sample was taken and filtered through a 0.45 μm filter into a vial. Then each sample was diluted with Solvent solution to get signal of absorbance≤1 at 265 nm, transferred into a vial and measured by HPLC method."}, "[2]": {"settings": "pH 1.2", "procedure": "as §1, §2"}, "[3]": {"settings": "Example 18, 20 mg salt in 10 ml buffer pH 1.2 and 4% Triton X-100, +37° C., maleate salt"}, "[4]": {"settings": "Example 10, 20 mg salt in 10 ml buffer pH 1.2 and 4% Triton X-100, +37° C."}, "[5]": {"settings": "Example 18, 20 mg salt in 10 ml buffer pH 1.2 and 4% Triton X-100, +37° C."}, "[6]": {"settings": "Example 28, 20 mg salt in 10 ml buffer pH 1.2 and 4% Triton X-100, +37° C."}, "[7]": {"settings": "Example 10, 20 mg salt in 10 ml buffer pH 1.2 and 4% Triton X-100, +37° C., acetate salt"}}, "note": "Like-named read-outs stand apart in the source and are kept apart here."}
{"compound": "CCc1cc2c(cc1N1CCC(N3CCOCC3)CC1)C(C)(C)c1[nH]c3cc(C#N)ccc3c1C2=O.O=C(O)C=CC(=O)O", "note": "[Hydrogen maleate salt, Form 2, Alectinib hydrogen maleate salt]", "values": [{"measurement": "Solubility after 1 hour", "setting": "[1]; [3]", "result": 1260, "unit": "µg/mL"}]}
{"compound": "CCc1cc2c(cc1N1CCC(N3CCOCC3)CC1)C(C)(C)c1[nH]c3cc(C#N)ccc3c1C2=O.CS(=O)(=O)O", "note": "[Methane sulfonate salt, Form 12, Alectinib methane sulfonate salt]", "values": [{"measurement": "Solubility after 1 hour", "setting": "[2]", "result": 1350, "unit": "µg/mL"}]}
{"compound": "CCc1cc2c(cc1N1CCC(N3CCOCC3)CC1)C(C)(C)c1[nH]c3cc(C#N)ccc3c1C2=O.CS(=O)(=O)O", "note": "[Methane sulfonate salt, Form 15, Alectinib methane sulfonate salt]", "values": [{"measurement": "Solubility after 1 hour", "setting": "[2]", "result": 1190, "unit": "µg/mL"}]}
{"compound": "CCc1cc2c(cc1N1CCC(N3CCOCC3)CC1)C(C)(C)c1[nH]c3cc(C#N)ccc3c1C2=O.Cl", "note": "[HCl, reference compound]", "values": [{"measurement": "Solubility after 1 hour", "setting": "[1]; [4]", "result": 370, "unit": "µg/mL"}, {"measurement": "Solubility after 1 hour", "setting": "[1]; [5]", "result": 370, "unit": "µg/mL"}, {"measurement": "Solubility after 1 hour", "setting": "[1]; [6]", "result": 370, "unit": "µg/mL"}]}
{"compound": "CCc1cc2c(cc1N1CCC(N3CCOCC3)CC1)C(C)(C)c1[nH]c3cc(C#N)ccc3c1C2=O.CS(=O)(=O)O", "note": "[Methane sulfonate salt, Form 14, Alectinib methane sulfonate salt]", "values": [{"measurement": "Solubility after 1 hour", "setting": "[2]", "result": 1320, "unit": "µg/mL"}]}
{"compound": "CCc1cc2c(cc1N1CCC(N3CCOCC3)CC1)C(C)(C)c1[nH]c3cc(C#N)ccc3c1C2=O.CCc1cc2c(cc1N1CCC(N3CCOCC3)CC1)C(C)(C)c1[nH]c3cc(C#N)ccc3c1C2=O.O=C(O)C=CC(=O)O", "note": "[Fumaric acid (2:1) salt, Form 2, Alectinib fumaric acid (2:1) salt]", "values": [{"measurement": "Solubility after 1 hour", "setting": "[1]; [5]", "result": 1230, "unit": "µg/mL"}]}
{"compound": "CCc1cc2c(cc1N1CCC(N3CCOCC3)CC1)C(C)(C)c1[nH]c3cc(C#N)ccc3c1C2=O.CS(=O)(=O)O", "note": "[Methane sulfonate salt, Form 13, Alectinib methane sulfonate salt]", "values": [{"measurement": "Solubility after 1 hour", "setting": "[2]", "result": 1300, "unit": "µg/mL"}]}
{"compound": "Alectinib tartrate salt [Tartrate, Form 8]", "values": [{"measurement": "Solubility after 1 hour", "setting": "[1]; [5]", "result": 1230, "unit": "µg/mL"}]}
{"compound": "Alectinib acetate salt [Acetate, Form 4]", "values": [{"measurement": "Solubility after 1 hour", "setting": "[1]; [7]", "result": 1220, "unit": "µg/mL"}]}
{"compound": "Tosylate [reference compound]", "values": [{"measurement": "Solubility after 1 hour", "setting": "[1]; [4]", "result": 500, "unit": "µg/mL"}, {"measurement": "Solubility after 1 hour", "setting": "[1]; [5]", "result": 500, "unit": "µg/mL"}, {"measurement": "Solubility after 1 hour", "setting": "[1]; [6]", "result": 500, "unit": "µg/mL"}]}
{"compound": "CCc1cc2c(cc1N1CCC(N3CCOCC3)CC1)C(C)(C)c1[nH]c3cc(C#N)ccc3c1C2=O.CS(=O)(=O)O", "note": "[Methane sulfonate salt, Form 3, Alectinib methane sulfonate salt]", "values": [{"measurement": "Solubility after 1 hour", "setting": "[2]", "result": 1210, "unit": "µg/mL"}]}
{"compound": "CCc1cc2c(cc1N1CCC(N3CCOCC3)CC1)C(C)(C)c1[nH]c3cc(C#N)ccc3c1C2=O.O=C(O)C=CC(=O)O", "note": "[Fumaric acid (1:1) salt, Form 6, Alectinib fumaric acid (1:1) salt]", "values": [{"measurement": "Solubility after 1 hour", "setting": "[1]; [5]", "result": 1220, "unit": "µg/mL"}]}
{"compound": "CCc1cc2c(cc1N1CCC(N3CCOCC3)CC1)C(C)(C)c1[nH]c3cc(C#N)ccc3c1C2=O.O=C(O)C=CC(=O)O", "note": "[Hydrogen maleate salt, Form 1, Alectinib hydrogen maleate salt]", "values": [{"measurement": "Solubility after 1 hour", "setting": "[1]; [3]", "result": 2380, "unit": "µg/mL"}]}
{"compound": "Alectinib acetate salt [Acetate, Form 2]", "values": [{"measurement": "Solubility after 1 hour", "setting": "[1]; [7]", "result": 870, "unit": "µg/mL"}]}
{"compound": "CCc1cc2c(cc1N1CCC(N3CCOCC3)CC1)C(C)(C)c1[nH]c3cc(C#N)ccc3c1C2=O.O=C(O)C=CC(=O)O", "note": "[Fumaric acid (1:1) salt, Form 2, Alectinib fumaric acid (1:1) salt]", "values": [{"measurement": "Solubility after 1 hour", "setting": "[1]; [5]", "result": 1300, "unit": "µg/mL"}]}
